From patent US12240849B2, “Nitrogen-containing spiro derivative as RET inhibitor” (GUANGZHOU BAIYUNSHAN PHARMACEUTICAL HOLDINGS CO., LTD. …, priority 2019, dated 2025)
Like-named read-outs stand apart in the source and are kept apart here.

Tests used:
[1] = tested on: Ba/F3 KIF5B-RET tumor cell xenograft; assay: Efficacy in engineered cell line Ba/F3 KIF5B-RET xenograft model; type: in vivo, NPSG mice; details: for TGI: TGI = 1-ΔT/ΔC; for Tumor Volume on Day 10 / Tumor Volume on Day 0: average ± standard error
Text: To verify efficacy of drugs to be tested alone on the engineered cell line Ba/F3 KIF5B-RET xenograft model of NPSG mice.
1) Ba/F3 KIF5B-RET cells were resuscitated and cultured in vitro to obtain 4×10^7 cells.
2) Sixty 6-8 week old female NPSG mice were adaptively fed for one week and weighed.
3) The Ba/F3 KIF5B-RET cells were subcutaneously inoculated on right scapula of mice according to the inoculation conditions obtained in the pre-test (see Table 7) to establish the Ba/F3 KIF5B-RET tumor cell xenograft model of NPSG mice.
(§1) 4) After inoculation, the volume and weight of tumors were measured once a week. When the average tumor volume reached 104 mm^3, mice were randomly grouped according to the volume and weight of tumors with 6 mice in each group. The administration was started immediately after the grouping. The start date of the administration was recorded as day 0.
(§2) 5) After administration was started, the body weight and tumor volume of the mice were measured respectively on the day 0, day 3, day 6, and day 10.
6) For the experiment of two groups, a T-Test analysis method was used. For a comparison of three or more groups, One-Way ANOVA was used for analysis. For comparing potential synergistic effects, Two-Way ANOVA was used for analysis. All data were analyzed by using SPSS 17.0. A p value less than 0.05 was considered to be a significant difference, and a p value less than 0.01 was considered to be a very significant difference.

[2] = tested on: Ba/F3 KIF5B-RET-V804L tumor cell xenograft; assay: Efficacy in Ba/F3 KIF5B-RET-V804L tumor cell xenograft model; type: in vivo, NPSG mice
Text: 1) Ba/F3 KIF5B-RET-V804L cells were resuscitated and cultured in vitro to obtain 5×10^7 cells.
2) Forty-five 6-8 week old female mice were adaptively fed for 1 week and weighed.
3) Ba/F3 KIF5B-RET-V804L tumor cells were subcutaneously inoculated into the right scapula position of the mice so as to establish the engineered cell line Ba/F3 KIF5B3-RET-V804L tumor cell xenograft model. Inoculation conditions were as follows: (see Table 3)
(§3) 4) After inoculation, the volume and weight of tumors were measured once a week. When the average tumor volume reached 124.5 mm^3, mice with the tumor volume between 82.9 mm^3 and 145.4 mm^3 were selected and randomly grouped according to the volume and weight of tumors with 6 mice in each group. The administration was started immediately after the grouping. The start date of the administration was recorded as day 0.
(§4) 5) After the administration was started, the mice were continuously administrated for 9 days, and the body weight and tumor volume of the mice were measured on day 3, day 6, and day 9.
6) Data statistics were analyzed by one-way ANOVA. Variance homogeneity difference of data was firstly detected. If there was no difference in the variance homogeneity, an LSD method was used for analysis; and if there was a difference in the variance homogeneity, Dunnett's T3 was selected for data analysis. All data were analyzed by using SPSS 17.0. A p value less than 0.05 was considered a significant difference.

[3] = Pharmacokinetic evaluation in mice; type: in vivo, CD-1 mice (male); details: male, mouse, plasma, CD-1 mice; for bioavailability: read-out: Bioavailability F; for AUC: read-out: Integrated Concentration AUC; for clearance: read-out: Clearance Rate; for half-life: read-out: Half-life T1/2 (converted)
Text: Experiment objective: to test the pharmacokinetic of compound in mice
Experiment material: CD-1 mice (male)
Experiment operations: the pharmacokinetic characteristics of rodents after intravenous injection and oral administration of the compounds were obtained by using a standard scheme. In the experiment, candidate compounds were formulated into clear solutions, and mice were administrated by a single intravenous injection and oral administration. The solvent of the intravenous injection and oral administration was 10% PEG400 (polyethylene glycol 400)+90%(10% hydroxypropyl-β-cyclodextrin). The whole blood samples were collected within 24 hours. All the blood samples were added respectively into labeled plastic centrifuge tubes in which 0.5 M K2-EDTA anticoagulants were pre-added. The blood samples were collected, and centrifuged at 3,000 g for 10 min at 4° C. The supernatant plasma was collected by absorbing and quickly placed in dry ice to keep at −20° C. or lower. Blood concentrations were quantitatively analyzed by using an LC-MS/MS analysis method, and pharmacokinetic parameters, such as peak concentration, peak time, clearance rate, half-life, area under drug concentration-time curve, bioavailability, etc. were calculated.

[4] = Body weight of mice in Ba/F3 KIF5B-RET xenograft experiment; type: in vivo, NPSG mice; details: Ba/F3 KIF5B-RET model, in g (unit assumed)
Protocol: as §1, §2

[5] = Body weight of mice in Ba/F3 KIF5B-RET-V804L xenograft experiment; type: in vivo, NPSG mice; details: 10 mg/kg p.o. BID, Ba/F3 KIF5B-RET-V804L model, in g (unit assumed)
Protocol: as §3, §4

human wild-type RET = molecular target: T1, human wild-type RET (Homo sapiens, UniProt P07949); assay: 33P isotope-labeled kinase activity test, wild-type RET; type: biochemical; details: 33P-ATP at Km concentration
T1 construct: purchased Reaction Biology Corp
Protocol: (§5) ^33P isotope-labeled kinase activity test (Reaction Biology Corp) was used to determine IC50 value so as to evaluate an inhibitory ability of a test compound on human wild-type, V804M and V804L mutant RET.
(§6) Buffer solution condition: 20 mM 4-(2-hydroxyethyl)piperazine-1-ethanesulfonic acid (Hepes) (pH 7.5), 10 mM MgCl2, 1 mM 1,2-bis[2-[bis(carboxymethyl)amino]ethoxy]ethane (EGTA), 0.02% polyoxyethylene lauryl ether (Brij35), 0.02 mg/mL bovine serum albumin (BSA), 0.1 mM of Na3VO4, 2 mM dithiothreitol (DTT) and 1% DMSO.
(§7) Compound treatment: the compound to be tested was dissolved in 100% DMSO, and then the obtained solution was continuously diluted with DMSO by using Integra Viaflo Assist until a specific concentration was obtained.
(§8) Test procedures: a substrate was dissolved in the newly prepared buffer solution, a kinase to be tested was added therein, and the obtained solution was gently and evenly mixed. DMSO solution in which a compound to be test was dissolved was added in the above evenly mixed reaction solution by using an acoustic technology (Echo 550), and then incubated for 20 minutes at room temperature. […] Kinase activity data was expressed by comparing the kinase activity of the compound to be tested with the kinase activity of a blank group (containing only DMSO). The IC50 value was obtained by curve fitting with Prism4 software (GraphPad).

V804M mutant RET = molecular target: T2, V804M mutant RET (Homo sapiens, UniProt P07949, V804M); assay: 33P isotope-labeled kinase activity test, V804M mutant RET; type: biochemical; details: 33P-ATP at Km concentration
T2 construct: purchased Reaction Biology Corp
Protocol: as §5, §6, §7, §8

V804L mutant RET = molecular target: T3, V804L mutant RET (Homo sapiens, UniProt P07949, V804L); assay: 33P isotope-labeled kinase activity test, V804L mutant RET; type: biochemical; details: 33P-ATP at Km concentration
T3 construct: purchased Reaction Biology Corp
Protocol: as §5, §6, §7, §8

[6] = 10 mg/kg, oral administration 10 mpk
[7] = iv, 2 mg/kg, injection administration 2 mpk

T1 sequence (P07949 29-1114): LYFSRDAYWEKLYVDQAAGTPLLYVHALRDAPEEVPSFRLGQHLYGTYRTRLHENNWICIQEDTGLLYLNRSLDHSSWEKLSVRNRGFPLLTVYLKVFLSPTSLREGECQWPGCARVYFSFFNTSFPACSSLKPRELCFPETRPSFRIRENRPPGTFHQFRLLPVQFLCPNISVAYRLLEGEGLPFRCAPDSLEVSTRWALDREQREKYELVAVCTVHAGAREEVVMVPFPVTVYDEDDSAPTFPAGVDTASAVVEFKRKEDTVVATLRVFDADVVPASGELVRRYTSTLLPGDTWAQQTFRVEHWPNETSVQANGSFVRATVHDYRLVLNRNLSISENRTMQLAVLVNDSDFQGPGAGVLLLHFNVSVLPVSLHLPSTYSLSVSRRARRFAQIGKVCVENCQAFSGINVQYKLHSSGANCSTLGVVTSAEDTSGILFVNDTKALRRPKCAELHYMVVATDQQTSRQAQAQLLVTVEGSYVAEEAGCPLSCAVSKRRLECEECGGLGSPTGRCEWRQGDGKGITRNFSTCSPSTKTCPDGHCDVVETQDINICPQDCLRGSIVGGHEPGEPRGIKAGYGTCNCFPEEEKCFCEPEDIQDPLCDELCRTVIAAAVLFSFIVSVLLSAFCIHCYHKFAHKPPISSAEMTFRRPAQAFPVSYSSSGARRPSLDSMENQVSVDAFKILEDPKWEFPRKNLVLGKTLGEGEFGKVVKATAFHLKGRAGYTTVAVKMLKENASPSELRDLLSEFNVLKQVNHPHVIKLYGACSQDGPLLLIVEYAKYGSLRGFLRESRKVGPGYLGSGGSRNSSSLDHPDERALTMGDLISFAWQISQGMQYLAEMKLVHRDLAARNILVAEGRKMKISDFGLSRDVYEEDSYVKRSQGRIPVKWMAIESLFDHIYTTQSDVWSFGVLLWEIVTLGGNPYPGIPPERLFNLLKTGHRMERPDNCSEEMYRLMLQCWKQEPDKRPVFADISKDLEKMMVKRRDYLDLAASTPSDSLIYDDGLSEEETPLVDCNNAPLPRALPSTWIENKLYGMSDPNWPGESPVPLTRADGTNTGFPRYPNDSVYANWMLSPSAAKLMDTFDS
T3 sequence (P07949 29-1114 V804L): as the sequence (P07949 29-1114) above, with V776L counted along it
T2 sequence (P07949 29-1114 V804M): as the sequence (P07949 29-1114) above, with V776M counted along it

| SMILES | ΔVAC ([1]; 10 mg/kg p.o. BID Day 0-Day 10) | ΔVAC ([2]; 10 mg/kg p.o. BID Day 0-Day 9) | bioavailability [3, 6] | AUC [3, 6] | clearance [3, 7] | half-life [3, 7] | AUC [3, 7] | Body weight ([4]; day 0, 10 mg/kg p.o. BID) | Body weight ([4]; day 3, 10 mg/kg p.o. BID) | Body weight ([4]; day 6, 10 mg/kg p.o. BID) | Body weight ([4]; day 10, 10 mg/kg p.o. BID) | Body weight ([5]; day 0) | Body weight ([5]; day 3) | Body weight ([5]; day 6) | Body weight ([5]; day 9) | IC50 (human wild-type RET) | other results |
| --- | --- | --- | --- | --- | --- | --- | --- | --- | --- | --- | --- | --- | --- | --- | --- | --- | --- |
| Cc1cc(Nc2cc(C)nc(C3CCC4(CC3)OCCN(C(C)c3ccc(-n5cc(F)cn5)nc3)C4=O)n2)[nH]n1 (single isomer, unassigned) [Compound 014] | 1% | −6% | 53.7% | 49.6 µM·h | 1.65 mL/min/kg | 2.53 h | 16.4 µM·h | 18 ± 0.57 | 18.5 ± 0.47 | 18.5 ± 0.75 | 18.6 ± 0.62 | 19.5 ± 0.53 | 20.3 ± 0.72 | 20.5 ± 0.72 | 20.3 ± 0.84 | – | – |
| Cc1cc(Nc2cc(C)[nH]n2)nc(N2CCC3(CC2)OCCN(C(C)c2ccc(-n4cc(F)cn4)nc2)C3=O)n1 (stereo not drawn) [Compound 018] | 10% | −7% | 59.7% | 27.7 µM·h | 6.55 mL/min/kg | 2.56 h | 9.3 µM·h | 17.7 ± 0.47 | 18.2 ± 0.51 | 18.5 ± 0.57 | 17.7 ± 0.86 | 18.6 ± 0.49 | 18.8 ± 0.48 | 18.6 ± 0.87 | 19 ± 0.64 | 1.29 nM | TGI ([1]; 10 mg/kg p.o. BID Day 0-Day 10): 90%; Tumor Volume on Day 10 ([1]; 10 mg/kg p.o. BID Day 0-Day 10): 205.1 ± 29.87 mm^3; Tumor Volume on Day 0 ([1]; 10 mg/kg p.o. BID): 106.3 ± 7.14 mm^3; ΔVAC ([1]; 20 mg/kg p.o. BID Day 0-Day 10): −7%; TGI ([1]; 20 mg/kg p.o. BID Day 0-Day 10): 107%; Tumor Volume on Day 10 ([1]; 20 mg/kg p.o. BID Day 0-Day 10): 32.8 ± 6.81 mm^3; Tumor Volume on Day 0 ([1]; 20 mg/kg p.o. BID): 102.2 ± 7.09 mm^3; IC50 (V804M mutant RET): 1.97 nM; IC50 (V804L mutant RET): 1.23 nM; TGI ([2]; 10 mg/kg p.o. BID Day 0-Day 9, TGI = 1-ΔT/ΔC): 107%; Tumor Volume on Day 9 ([2]; 10 mg/kg p.o. BID Day 0-Day 9, average ± standard error): 75.5 ± 7.11 mm^3; Tumor Volume on Day 0 ([2]; 10 mg/kg p.o. BID, average ± standard error): 125 ± 3.96 mm^3; Body weight ([4]; day 0, 20 mg/kg p.o. BID): 17.6 ± 0.58; Body weight ([4]; day 3, 20 mg/kg p.o. BID): 18.1 ± 0.56; Body weight ([4]; day 6, 20 mg/kg p.o. BID): 18.3 ± 0.53; Body weight ([4]; day 10, 20 mg/kg p.o. BID): 18.5 ± 0.63 |
| Cc1cc(Nc2cc(C)nc(N3CCC4(CC3)CCN(C(C)c3ccc(-n5cc(F)cn5)nc3)C4)n2)[nH]n1 (stereo not drawn) [Compound 003-h] | – | – | – | – | – | – | – | – | – | – | – | – | – | – | – | 73.9 nM | – |
